{
  "source": "paper PMC3493566",
  "about": "(2012)",
  "key": {"[1]": {"test_system": "d(TTTGCAAA) duplex (DNA, duplex) TTTGCAAA", "test": "UV melting at 260 nm", "settings": "Na+ (20 mM sodium cacodylate); pH 7.3, 4 µM duplex, no spermine; ACTD concentration not stated"}, "[2]": {"test_system": "5'-biotin-labeled hairpin DNA duplex (DNA, hairpin) AAAGCTTTTGTAAAGCTTT", "test": "SPR (BIAcore), ka/kd", "settings": "50 mM NaCl; 20 mM Tris-HCl pH 7.3, no spermine"}},
  "note": "*1 amine or outer side, *2 acyl side, *3 side chain or, on linkers, in order; H or OH if unused. Where a SMILES comes first, the peptide text is derived from it. Bridges are numbered along the chain shown (N, C = ends). Roman numbers before positions name the chains, in order. [ ]: non-standard residue; d: D form. Actinocin(9to1) = Cc1c2oc3c(C)ccc(C(=O)[*:1])c3nc-2c(C(=O)[*:2])c(N)c1=O; NMeV = CN[C@H](C(=O)O)C(C)C; Sar = CNCC(=O)O",
  "data": [
    {"smiles": "Cc1c2oc3c(C)ccc(C(=O)N[C@@H]4C(=O)N[C@H](C(C)C)C(=O)N5CCC[C@H]5C(=O)N(C)CC(=O)N(C)[C@@H](C(C)C)C(=O)O[C@@H]4C)c3nc-2c(C(=O)N[C@@H]2C(=O)N[C@H](C(C)C)C(=O)N3CCC[C@H]3C(=O)N(C)CC(=O)N(C)[C@@H](C(C)C)C(=O)O[C@@H]2C)c(N)c1=O", "note": "(I: T[dV]P[Sar][NMeV] / II: T[dV]P[Sar][NMeV]; ester I:1-I:C, II:1-II:C; linker I:N-II:N via Actinocin(9to1))", "values": [
      {"measurement": "Tm", "setting": "[1]", "result": 6.3, "unit": "°C"},
      {"measurement": "Ka", "setting": "[2]", "result": "2.48 ± 0.17 × 10^6 M^-1"}
    ]}
  ]
}
